From patent US9353089B2, “Compositions and methods for the treatment of malaria” (Saint Louis University, priority 2013, dated 2016) come the findings set out here.

Data set [1] can be described thus: HLM metabolic stability assay. In kind it is in vitro ADME. The following applies: pH 7.4, human liver microsomes, read-out: HLM t1/2. The method, then: (§1) In this protocol, the metabolic stability of compounds at 1 μM was determined in Mouse Liver Microsome (MLM), rat liver microsomes (RLM) or human liver microsomes (HLM). […]. After incubation at 37° C. for a specific time period (0, 5, 10, 20 and 30 min), the reaction was terminated by the addition of 200 μL ice cold acetonitrile containing internal standard (100 ng/mL) after 100 μL aliquots of reaction mixture was removed. The quenched reaction mixtures were centrifuged at 3200 rpm for 5 min, and 100 μL of the supernatant were transferred to 96-well deep plate. The samples in 96 well plate were analyzed by LC-MS/MS using an Applied Biosystems-Sciex model API 3000 mass spectrometer. The data were analyzed using the following equations. […]

A short description of data set [2]: MLM metabolic stability assay. In kind it is in vitro ADME. The following applies: pH 7.4, mouse liver microsomes, read-out: MLM t1/2. The method, then: as §1
A general note: Microsomes from liver hold many membrane-bound enzymes, among them those of drug oxidation.

In the case of `COc1ccc(C2(c3ccc(OC)cc3)NC(=N)N(C3CCOCC3)C2=O)cc1` [Example 176, 2-imino-5,5-bis(4-methoxyphenyl)-3-(oxan-4-yl)-imidazolidin-4-one], the half-life at 1 μM in data set [1] was determined as 36 min. Turning to `COc1ccc(C2(c3ccc(OC)cc3)NC(=N)N(C3CCN(C(=O)OC(C)(C)C)CC3)C2=O)cc1` [Example 206, tert-butyl 4-[2-imino-4,4-bis(4-methoxyphenyl)-5-oxoimidazolidin-1-yl]piperidine-1-carboxylate], in data set [2], the half-life at 1 μM is 26 min.
